Measurements: patent US10472326B2, “PQSR modulators” (HELMHOLTZ-ZENTRUM FÜR INFEKTIONSFORSCHUNG GMBH, priority 2014, dated 2019)
pIC50: −log10 of the molar value. “Also recorded” adds a separate entry of the source. Like-named read-outs stand apart in the source and are kept apart here. Marks after values point to notes of the source that are not given here.

Experiments:
[1] = tested on: P. aeruginosa infection; settings: cited from earlier work
[2] = tested on: P. aeruginosa biofilm; settings: background statement; cited from earlier work
[3] = tested on: Pseudomonas aeruginosa; settings: cited from earlier work
[4] = tested on: P. aeruginosa PA14; settings: in cellulo; ref. [20]; strain not given; read-out: IC50, inhibition of virulence factor pyocyanin production; cited from earlier work
[5] = tested on: P. aeruginosa PA14; settings: strain not given, cited from earlier work
[6] = tested on: P. aeruginosa infection; settings: cited from earlier work; remark: listed apart in the source
[7] = tested on: P. aeruginosa PA14; assay: Pyocyanin assay; assay type: cell-based; settings: for Reduction of Pyocyanin: PA14
Description: For analysis of pyocyanin formation, cultivation procedure was the same as for HHQ determination with the exception of using PPGAS medium. Pyocyanin produced by PA14 was quantified using the method of Essar et al. with some modifications, as described in detail by Klein et al.. Briefly, 900 μL of each culture were extracted with 900 μL of chloroform and 800 μL of the organic phase re-extracted with 250 μL of 0.2 M HCl. OD520 was measured in the aqueous phase using FLUOstar Omega (BMG Labtech, Ortenberg, Germany). For each sample, cultivation and sample work-up were performed in triplicates. Inhibition values of pyocyanin formation were normalized to OD600.

[8] = biological target: T1, PqsR (Pseudomonas aeruginosa, UniProt Q9I4X0); assay: cell-based; settings: read-out: Inhibition of PqsR stimulation induced by 50 nM PQS in the presence of test compd. (full inhibition = 1.00)
T1 construct: expressed in transfected cells; host or cells: E. coli DH5α carrying plasmid pEAL08-2
Description: The ability of the compounds to either stimulate or antagonize the PqsR-dependent transcription was analysed as previously described using a β-galactosidase reporter gene assay in E. coli expressing PqsR. Briefly, a culture of E. coli DH5α cells containing the plasmid pEAL08-2, which encodes PqsR under the control of the tac promoter and the β-galactosidase reporter gene lacZ controlled by the pqsA promoter, were co-incubated with test compound. Antagonistic effects of compounds were assayed in the presence of 50 nM PQS. After incubation, β-galactosidase activity was measured spectralphotometrically at OD420 nm using POLARstar Omega (BMG Labtech, Ortenberg, Germany) and expressed as percent stimulation of controls. For the determination of IC50 values, compounds were tested at least at eight different concentrations.

[9] = tested on: P. aeruginosa PA14; assay: Determination of extracellular PQS levels; assay type: cell-based; settings: compd. at 15 μM
Description: Quantification of PQS produced by P. aeruginosa PA14 was performed according to the method of Maurer et al.. For each sample, cultivation and sample work-up were performed in triplicates. Inhibition values of PQS formation were normalized to OD600.

[10] = tested on: clinical isolate MHH9639; assay: Biofilm growth assay, clinical isolate MHH9639; assay type: cell-based, P. aeruginosa; settings: added to 24 h old biofilms, final concentration 100 μM
[11] = tested on: P. aeruginosa PA14; assay: Biofilm growth assay, PA14; assay type: cell-based; settings: added to 24 h old biofilms, final concentration 100 μM
Description: Static biofilms at the bottom of 96 well microtiter plates were grown with small modifications as previously described. In brief, overnight P. aeruginosa LB cultures of PA14 were adjusted to an OD600 of 0.002 with fresh medium and transferred into a half-area 96 well μClear plate (Greiner Bio-One, 100 μL/well). The plate was covered with an air-permeable foil and incubated at 37° C. in a chamber with humid atmosphere. After 24 h, a staining solution including Syto9 and propidium iodide (LIVE/DEAD BacLight Bacterial Viability kit, Molecular Probes/Invitrogen) and the test compound solved in DMSO was added to the biofilms (final concentration 100 μM, 1% DMSO (v/v)) and biofilms were further incubated for 24 h at 37° C. After in total 48 h, biofilm stacks were acquired in the center of each well (step size: 3 μm) using an automated confocal microscope (TCS SP8, Leica Microsystems) equipped with an ×40/1.10 water objective. The acquired image stacks were processed and analyzed with a customized analysis solution for the Developer XD2 (Definiens) based on a previously described algorithm. 3D-projections of the biofilms are visualized with the software IMARIS (version 7.6.5, Bitplane).

[12] = tested on: Pseudomonas aeruginosa; settings: cited from earlier work; remark: listed apart in the source

T1 sequence (Q9I4X0 whole entry): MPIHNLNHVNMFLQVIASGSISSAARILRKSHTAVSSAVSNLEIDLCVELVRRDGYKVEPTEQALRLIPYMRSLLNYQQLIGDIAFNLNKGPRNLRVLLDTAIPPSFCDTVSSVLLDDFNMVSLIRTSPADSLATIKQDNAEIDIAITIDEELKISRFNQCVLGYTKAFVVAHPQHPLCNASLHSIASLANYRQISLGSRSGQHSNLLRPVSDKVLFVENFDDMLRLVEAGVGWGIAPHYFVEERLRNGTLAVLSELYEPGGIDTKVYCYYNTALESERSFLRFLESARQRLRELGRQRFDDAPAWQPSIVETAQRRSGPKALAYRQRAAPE

SMILES | inhibition at 0.05 µM [8] | inhibition at 5 µM [8] | further results
CCCCCCCc1[nH]c2ccc([N+](=O)[O-])cc2c(=O)c1C(N)=O [2-heptyl-6-nitro-4-oxo-1,4-dihydroquinoline-3-carboxamide] |  |  | Toxicity in animal model ([1]; in vivo): no sign of toxicity; Protection of nematodes from lethal P. aeruginosa infection ([1]; ref. [20]): strong protection; Inhibition of biofilm formation [2]: not being able to inhibit biofilm formation; Reduction of HHQ production ([3]; at 15 μM, ref. [20]): 54%; pIC50 [4]: 5.70; Reduction of PQS production ([5]; at 15 μM, ref. [20]): 37%; Protection of larvae from lethal P. aeruginosa infection ([6]; at 22 nM corresponding to 7.3 ng g^−1 body weight, ref. [20]): full protection; Toxicity in animal model ([6]; in vivo): no sign of toxicity
CCCCCCCc1[nH]c2ccc([N+](=O)[O-])cc2c(=O)c1CO [Compound 1, 2-heptyl-3-(hydroxymethyl)-6-nitroquinolin-4(1H)-one] | 45% | 100% | Reduction of Pyocyanin ([7]; compd. at 15 μM): 83%; Reduction of PQS [9]: 33%
CCCCCCCc1[nH]c2ccc([N+](=O)[O-])cc2c(=O)c1C(=O)OCC [Compound 2, ethyl 2-heptyl-6-nitro-4-oxo-1,4-dihydroquinoline-3-carboxylate] | -8% | 20% | 
CCOCCCCc1[nH]c2ccc([N+](=O)[O-])cc2c(=O)c1C(=O)OCC [Compound 3] | 2% | 27% | 
CCCCCCCc1[nH]c2ccccc2c(=O)c1C(=O)OCC [Compound 4] | 18% | 32% | 
CCCCCCCc1[nH]c2ccncc2c(=O)c1C(=O)OCC [Compound 5] | 24% | 76% | 
Nc1cccc(F)c1C(=O)O [Compound 6FABA] |  |  | pIC50 ([3]; PqsA inhibitor, refs [14, 16, 22], read-out: IC50, production of signal molecules HHQ and PQS): ~4.00
CCCCCCCc1[nH]c2ccccc2c(=O)c1CO [Compound 6] | 5% | 28% | 
CCCCCCCc1[nH]c2ccncc2c(=O)c1C(=O)O [Compound 7, 2-heptyl-4-oxo-1,4-dihydro-1,6-naphthyridine-3-carboxylic acid] | 6% | 20% | 
CCCCCCCc1[nH]c2ccccc2c(=O)c1C(=O)NO [Compound 8] | 15% | 29% | Biofilm formation / biovolume of the biofilms [10]: strongly inhibited; also recorded: markedly reduced; pIC50 ([7]; Pseudomonas aeruginosa, PA14, read-out: IC50, production of the virulence factor pyocyanin): ~4.92; Reduction of Pyocyanin ([7]; determined at 12.5 μM): 51^e %; Biofilm formation / biovolume of the biofilms [11]: strongly inhibited; also recorded: markedly reduced
CCCCCCCc1[nH]c2ccccc2c(=O)c1[N+](=O)[O-] [Compound 9, 2-heptyl-3-nitroquinolin-4(1H)-one] | 14% | 17% | 
CCCCCCCc1[nH]c2ccc([N+](=O)[O-])cc2c(=O)c1C(=O)NO [Compound 10, 2-heptyl-N-hydroxy-6-nitro-4-oxo-1,4-dihydroquinoline-3-carboxamide] | 30% | 78% | Reduction of Pyocyanin ([7]; determined at 12.5 μM): 57^e %
CCCCCCCc1[nH]c2ccc([N+](=O)[O-])cc2c(=O)c1C(=O)O [Compound 12, 2-heptyl-6-nitro-4-oxo-1,4-dihydroquinoline-3-carboxylic acid] | 11% | 34% | 
CCCCCCCc1cc(=O)c2cc(C(F)(F)F)ccc2n1C [Ref. 1, 2-heptyl-1-methyl-6-(trifluoromethyl)quinolin-4(1H)-one, reference compound] | 31% | 100% | Reduction of Pyocyanin ([7]; compd. at 15 μM): 58%; Reduction of PQS [9]: 8.9%
CCCCCOCc1cc(=O)c2cc(C(F)(F)F)ccc2[nH]1 [Ref. 4, 2-(Pentyloxymethyl)-6-(trifluoromethyl)quinolin-4(1H)-one, reference compound] | 29% | 100% | Reduction of Pyocyanin ([7]; compd. at 15 μM): 29%; Reduction of PQS [9]: 21%
CCCCCCCc1cc(=O)c2cnccc2[nH]1 [Ref. 9, 2-Heptyl-1,6-naphthyridin-4(1H)-one, reference compound] | 8% | 2% | 
COC(=O)c1ccccc1N [methyl anthranilate] |  |  | PQS formation ([5]; at millimolar concentrations, ref. [12]): inhibit PQS formation; Production of the virulence factor elastase [12]: inhibit
